Active and inactive are the calls of the source.
Legend:
[1] = HepG2 cell cytotoxicity, dose response, cytotoxicity control for Shn3 inhibitor project, CellTiter-Glo, cherry-picked (AID 624134); type: functional, cell-based
[2] = control 3'UTR Renilla luciferase suppression, dose response, counter-screen for Shn3 inhibitor project, cell-based, Clone20-Shn3RL, cherry-picked (AID 624133); type: functional
[3] = Shn3 3'UTR reporter inhibitors, dose response, cell-based, Clone20 osteoblasts, firefly luciferase, cherry-picked (AID 624132); type: functional;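 further: firefly luciferase luminescence from reporter carrying the Shn3 3'UTR in osteoblasts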
INS1 = assay: beta cell apoptosis inhibitors, cytokine rescue, dose response, luminescence, retest (AID 449756); type: functional, cell-based; settings: Rattus norvegicus;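 further: cell death triggered by IL-1 beta plus TNF-alpha plus IFN-gamma mixture; protective hits raise ATP signal compared with cytokine alone wells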
Protein Wnt-3a = Protein Wnt-3a (Mus musculus, UniProt P27467); assay: Wnt3a-driven reporter signaling inhibition, dose response, selectivity assay for Gli-SUFU antagonist project, Wnt-LIGHT cells, luminescence (AID 651570); type: functional; settings: read-out: IC50_Mean;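 further: Wnt-LIGHT reporter cells stimulated with conditioned medium from Wnt3a-producing cells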
Vero = Vero cell cytotoxicity, cytotoxicity control for flavivirus capping enzyme inhibitors (AID 588742); type: functional; settings: Chlorocebus sabaeus
[4] = inhibitors of clade B AD8 Env fusion, dose response, cell-based, cherry-pick (AID 652062); type: functional;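 further: luciferase signal from cell-cell fusion driven by HIV-1 clade B AD8 Env; potency is for inhibitors of fusion seen as a drop in luminescence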
Fatty acid synthase [5] = target: T1, Fatty acid synthase (Homo sapiens, UniProt P49327); assay: FAS thioesterase domain inhibitors, dose response, biochemical, endpoint fluorescence intensity, uHTS hits (AID 624327); type: functional;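 further: fluorescence from hydrolysis of an O-methyl fluorescein acyl ester substrate by the enzyme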
Fatty acid synthase [6] = target: T1, Fatty acid synthase; assay: FAS thioesterase domain inhibitors, dose response, biochemical, kinetic fluorescence intensity (AID 624326); type: functional;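 further: rate of fluorescence rise from hydrolysis of a fluorogenic O-methyl fluorescein ester substrate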
P388/ADR = assay: cells; type: functional; settings: Mus musculus
SN12K1 = assay: cells; type: functional; settings: Homo sapiens
P388 = assay: cells; type: functional; settings: Mus musculus
cells = type: functional
[7] = Vero E6 cell cytotoxicity, dose response, cytotoxicity control for non-replicating M. tuberculosis project, secondary assay (AID 492998); type: functional, VeroE6; settings: Vero C1008
[8] = HepG2 cell cytotoxicity, dose response, cytotoxicity control for non-replicating M. tuberculosis project (AID 489018); type: functional; settings: Mycobacterium tuberculosis
[9] = microbe, parasite or virus in culture; type: functional; settings: Mycobacterium tuberculosis
[10] = THP-1 cell cytotoxicity, dose response, cytotoxicity control for non-replicating M. tuberculosis project (AID 489025); type: functional
[11] = ZM109 Env clade C HIV-1 fusion inhibitors, dose response, HeLa effector, CEM target cells, luciferase, cherry-pick (AID 652058); type: functional, cell-based
[12] = off-target signal loss in HeLa-CEM21 co-culture – HeLa F-luc CTL cells, cherry-picked, counter-screen for HIV-1 Env fusion inhibitor project, dose response (AID 652040); type: functional, cell-based;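 further: potency for signal decrease marking cytotoxic or nonspecific inhibition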
[13] = inhibitors of HIV Env-driven cell fusion, dose response, cherry-pick (AID 652057); type: functional, cell-based

Chain of Protein Wnt-3a (P27467 whole entry): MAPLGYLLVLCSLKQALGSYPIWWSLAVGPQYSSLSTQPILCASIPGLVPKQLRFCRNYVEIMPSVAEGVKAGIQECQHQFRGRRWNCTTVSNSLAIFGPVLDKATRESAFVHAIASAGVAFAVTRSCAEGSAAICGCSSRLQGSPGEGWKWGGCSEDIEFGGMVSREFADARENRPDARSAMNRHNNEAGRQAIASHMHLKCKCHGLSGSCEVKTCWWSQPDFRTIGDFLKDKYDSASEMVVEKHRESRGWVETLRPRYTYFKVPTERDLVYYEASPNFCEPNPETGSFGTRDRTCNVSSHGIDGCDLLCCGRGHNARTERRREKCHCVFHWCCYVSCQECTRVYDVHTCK
T1 sequence (P49327 whole entry, the tested form may be a part): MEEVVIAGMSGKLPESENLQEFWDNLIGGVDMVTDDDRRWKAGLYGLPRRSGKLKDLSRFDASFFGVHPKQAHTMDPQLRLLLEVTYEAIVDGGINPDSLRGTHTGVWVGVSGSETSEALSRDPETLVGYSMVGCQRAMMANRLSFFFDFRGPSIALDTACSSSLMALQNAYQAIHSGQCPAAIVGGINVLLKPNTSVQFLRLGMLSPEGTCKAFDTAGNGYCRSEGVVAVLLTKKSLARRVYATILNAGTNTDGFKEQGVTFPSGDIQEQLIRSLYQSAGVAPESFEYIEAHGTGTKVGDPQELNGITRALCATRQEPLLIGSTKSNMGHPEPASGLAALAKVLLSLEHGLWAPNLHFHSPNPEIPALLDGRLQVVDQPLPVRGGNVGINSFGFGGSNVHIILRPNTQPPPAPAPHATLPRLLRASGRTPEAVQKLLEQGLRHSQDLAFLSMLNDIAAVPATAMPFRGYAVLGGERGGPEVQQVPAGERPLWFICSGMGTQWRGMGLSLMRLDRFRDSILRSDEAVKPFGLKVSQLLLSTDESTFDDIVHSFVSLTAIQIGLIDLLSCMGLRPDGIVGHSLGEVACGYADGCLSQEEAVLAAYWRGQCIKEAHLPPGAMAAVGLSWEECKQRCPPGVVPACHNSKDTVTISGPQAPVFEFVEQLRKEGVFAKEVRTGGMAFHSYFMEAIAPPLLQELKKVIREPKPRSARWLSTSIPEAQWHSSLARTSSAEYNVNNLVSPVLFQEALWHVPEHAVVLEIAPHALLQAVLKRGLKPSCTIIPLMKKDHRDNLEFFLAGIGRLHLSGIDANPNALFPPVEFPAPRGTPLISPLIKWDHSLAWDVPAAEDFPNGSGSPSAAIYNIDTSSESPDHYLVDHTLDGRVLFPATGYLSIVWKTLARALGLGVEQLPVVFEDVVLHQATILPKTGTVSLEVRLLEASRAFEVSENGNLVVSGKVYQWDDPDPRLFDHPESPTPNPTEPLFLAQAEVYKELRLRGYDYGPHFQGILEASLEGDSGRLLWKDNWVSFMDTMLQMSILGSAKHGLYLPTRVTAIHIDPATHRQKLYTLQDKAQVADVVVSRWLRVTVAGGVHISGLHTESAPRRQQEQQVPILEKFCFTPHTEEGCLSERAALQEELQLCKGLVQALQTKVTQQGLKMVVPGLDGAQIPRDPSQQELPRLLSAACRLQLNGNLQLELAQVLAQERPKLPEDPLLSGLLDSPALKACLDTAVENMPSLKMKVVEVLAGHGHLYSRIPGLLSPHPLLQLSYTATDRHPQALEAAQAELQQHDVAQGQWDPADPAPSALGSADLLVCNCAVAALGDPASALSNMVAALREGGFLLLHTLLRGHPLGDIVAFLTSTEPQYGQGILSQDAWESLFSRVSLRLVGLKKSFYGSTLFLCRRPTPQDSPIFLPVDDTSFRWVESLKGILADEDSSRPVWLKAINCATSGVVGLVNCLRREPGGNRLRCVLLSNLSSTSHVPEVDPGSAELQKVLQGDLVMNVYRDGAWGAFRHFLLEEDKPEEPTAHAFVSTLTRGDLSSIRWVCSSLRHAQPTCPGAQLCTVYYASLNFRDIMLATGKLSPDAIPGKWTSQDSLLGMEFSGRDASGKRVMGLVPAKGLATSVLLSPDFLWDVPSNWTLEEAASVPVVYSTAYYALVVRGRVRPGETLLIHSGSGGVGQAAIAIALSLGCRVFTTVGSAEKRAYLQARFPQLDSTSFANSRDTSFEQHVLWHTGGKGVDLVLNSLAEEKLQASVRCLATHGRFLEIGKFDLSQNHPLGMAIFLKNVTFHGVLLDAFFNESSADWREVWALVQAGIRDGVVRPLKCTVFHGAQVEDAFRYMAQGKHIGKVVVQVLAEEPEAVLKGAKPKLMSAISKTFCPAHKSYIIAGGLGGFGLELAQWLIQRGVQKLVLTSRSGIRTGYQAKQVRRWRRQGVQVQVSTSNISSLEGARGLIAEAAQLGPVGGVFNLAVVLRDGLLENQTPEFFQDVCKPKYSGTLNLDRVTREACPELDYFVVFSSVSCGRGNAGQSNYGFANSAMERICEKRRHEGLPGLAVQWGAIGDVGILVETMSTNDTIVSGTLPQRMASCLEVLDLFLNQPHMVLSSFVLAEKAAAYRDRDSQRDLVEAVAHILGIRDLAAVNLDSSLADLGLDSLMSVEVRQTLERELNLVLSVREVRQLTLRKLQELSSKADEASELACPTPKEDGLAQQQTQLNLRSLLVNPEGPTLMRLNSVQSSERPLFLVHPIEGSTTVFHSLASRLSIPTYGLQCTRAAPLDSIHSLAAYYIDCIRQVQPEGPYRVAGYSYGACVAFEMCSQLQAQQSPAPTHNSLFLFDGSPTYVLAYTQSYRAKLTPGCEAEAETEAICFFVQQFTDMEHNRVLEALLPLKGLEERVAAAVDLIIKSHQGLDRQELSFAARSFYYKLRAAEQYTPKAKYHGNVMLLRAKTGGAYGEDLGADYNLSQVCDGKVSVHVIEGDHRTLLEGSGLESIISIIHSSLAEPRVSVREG

Cc1c(C(C)C)c(=O)n(-c2ccc(S(=O)(=O)NCc3ccccc3)cc2)n1C
active: AC50 [1] 2.48 µM | AC50 [2] 1.96 µM | AC50 [3] 1.18 µM | AC50 (INS1) 2.71 µM | IC50 (Protein Wnt-3a) 5.02 µM

Cc1ccc(/C=C/c2nc3ccccc3[nH]2)o1
active: CC50 (Vero) > 40 µM

O=C(Cc1ccc(Cl)cc1Cl)Nc1ccncc1
active: AC50 [1] 42.9 µM | AC50 [2] 6.34 µM | AC50 [4] 9.95 µM | AC50 [3] 2.56 µM | IC50 (Protein Wnt-3a) 3.6 µM

Cn1c(=O)c2c(nc(NCCOc3ccc(C(C)(C)C)cc3)n2C)n(C)c1=O
active: IC50 (Protein Wnt-3a) 1.2 µM

O=[N+]([O-])c1ccc(C(O)C(CO)N=C(S)Nc2ccccc2)cc1 (stereo unspecified)
inactive: IC50 (Fatty acid synthase [5]) 20.8 µM | IC50 (Fatty acid synthase [6]) 24.8 µM

COC(=O)NC1C(C)OC(OC2C/C=C(/C)C3C=CC4C(OC5CC(OC6CC(O)C(OC7CC(O)C(OC)C(C)O7)C(C)O6)C(O)C(C)O5)C(C)CC(C)C4C3(C)C(=O)C3=C(O)C4(CC(C)C(CO)=CC4/C=C\2C)OC3=O)CC1(C)[N+](=O)[O-] (stereo unspecified)
inactive: GI50 (P388/ADR) 5.56 µM | GI50 (SN12K1) 6.21 µM | GI50 (P388) 3.55 µM

O=C(NC(Cc1ccc(Br)cc1)C(=O)O)c1ccc(I)cc1 (stereo unspecified)
inactive: GI50 (P388/ADR) > 66.1 µM | GI50 (SN12K1) > 100 µM | GI50 (P388) > 80.9 µM

Nc1nc(N)c2cc(CNc3ccc(C(=O)NC(CC(=O)O)C(=O)O)c(Cl)c3)ccc2n1 (stereo unspecified)
active: GI50 (P388/ADR) < 0.01 µM | GI50 (SN12K1) 0.014 µM | GI50 (P388) < 0.01 µM

S=P1(Sc2ccccc2)Oc2ccc3ccccc3c2-c2c(ccc3ccccc23)O1
inactive: GI50 (P388/ADR) > 100 µM | GI50 (SN12K1) > 100 µM | GI50 (P388) > 100 µM

O=NN(CCCl)C(=O)N[C@H]1CC[C@H](CC(=O)O)CC1
inactive: GI50 (P388/ADR) 3.97 µM | GI50 (SN12K1) 69 µM | GI50 (P388) 3.73 µM

O=S(=O)(O)c1cc(S(=O)(=O)O)c2cc(/N=N/c3ccc(/N=N/c4ccc(/C=C/c5ccc(/N=[N+](/[O-])c6ccc(/C=C/c7ccc(/N=N/c8ccc(/N=N/c9ccc%10cc(S(=O)(=O)O)cc(S(=O)(=O)O)c%10c9)cc8)cc7S(=O)(=O)O)c(S(=O)(=O)O)c6)cc5S(=O)(=O)O)c(S(=O)(=O)O)c4)cc3)ccc2c1
inactive: GI50 (SN12K1) > 95.1 µM | GI50 (P388) 14.7 µM

C/C(=N\NC(=O)c1cc2ccccc2cc1O)c1ccc(C)o1
active: IC50 (cells) 6.26 µM | CC50 [7] 16 µM | CC50 [8] > 20 µM | CC50 [9] 22.7 µM | CC50 (Vero) 32 µM | CC50 [10] 21.9 µM

CC1(C(=O)N/N=C/c2cc3c(cc2Br)OCO3)CC1(Br)Br (stereo unspecified)
active: AC50 [11] 2.59 µM | AC50 [4] 15.2 µM | AC50 [12] 9.4 µM | AC50 [13] 3.9 µM

Source: ChEMBL document CHEMBL1201862, “PubChem BioAssay data set” (2004)
